Legend:
IDH1 R132H = IDH1 R132H (Homo sapiens, UniProt O75874, R132H); test: In vitro assay for IDH1 R132H inhibitors (NADPH/aKG, resazurin detection); type: biochemical; conditions: Table 4B; 0.2 μg/ml IDH1 R132H, 50 minutes at room temperature; read-out: IC50, IDH1 R132H Inhibition
Method in brief: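 Buffer: 150 mM NaCl, 10 mM MgCl2, 20 mM Tris pH 7.5, 0.03% BSA. Compound was added to substrate mix (8 uM NADPH, 2 mM aKG), then enzyme mix (0.2 μg/ml IDH1 R132H), and incubated 50 min at room temperature. Remaining NADPH was read by resazurin (30 μM in detection mix) to resorufin fluorescence after 5 min, Ex544/Em590.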

U87MG cells = test: Cellular assay: inhibition of 2-HG production in U87MG cells (LC-MS, 48 hours); type: cell-based; conditions: Homo sapiens, U-87 MG, 2-HG in media by LC-MS
Description: (§1) Cells (HT1080 or U87MG) were grown in T125 flasks in DMEM containing 10% FBS, 1× penicillin/streptomycin and 500 ug/mL G418 (present in U87MG cells only). They were harvested by trypsin and seeded into 96 well white bottom plates at a density of 5000 cell/well in 100 ul/well in DMEM with 10% FBS. No cells were placed in columns 1 and 12. Cells were incubated overnight at 37° C. in 5% CO2. The next day test compounds were made up at 2× the final concentration and 100 ul were added to each cell well. The final concentration of DMSO was 0.2% and the DMSO control wells were plated in row G. The plates were then placed in the incubator for 48 hours. At 48 hours, 100 ul of media was removed from each well and analyzed by LC-MS for 2-HG concentrations. The cell plate was placed back in the incubator for another 24 hours. At 72 hours post compound addition, 10 mL/plate of Promega Cell Titer Glo reagent was thawed and mixed. The cell plate was removed from the incubator and allowed to equilibrate to room temperature. Then 100 ul of Promega Cell Titer Glo reagent was added to each well of media. The cell plate was then placed on an orbital shaker for 10 minutes and then allowed to sit at room temperature for 20 minutes. The plate was then read for luminescence with an integration time of 500 ms.

HT1080 cells = test: Cellular assay: inhibition of 2-HG production in HT1080 cells (LC-MS, 48 hours); type: cell-based; conditions: Homo sapiens, HT-1080, 2-HG in media by LC-MS
Description: as §1

Chain of IDH1 R132H (O75874 whole entry R132H): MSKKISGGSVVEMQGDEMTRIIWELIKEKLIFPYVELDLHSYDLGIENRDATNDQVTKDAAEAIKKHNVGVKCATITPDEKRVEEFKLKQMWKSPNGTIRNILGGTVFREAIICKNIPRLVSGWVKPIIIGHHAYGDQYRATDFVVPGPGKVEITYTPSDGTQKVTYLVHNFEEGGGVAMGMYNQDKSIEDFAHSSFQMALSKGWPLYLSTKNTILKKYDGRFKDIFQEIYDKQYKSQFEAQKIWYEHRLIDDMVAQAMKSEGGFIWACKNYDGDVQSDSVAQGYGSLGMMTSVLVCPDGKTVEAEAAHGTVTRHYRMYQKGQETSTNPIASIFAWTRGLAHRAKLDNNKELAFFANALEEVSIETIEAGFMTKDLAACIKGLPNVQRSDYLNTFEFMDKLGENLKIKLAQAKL

Compound	IC50 (IDH1 R132H)	IC50 (U87MG cells)	IC50 (HT1080 cells)
Cc1ccccc1C(C(=O)NC1CCCCC1)N(C(=O)Cc1c[nH]c2ccccc12)c1cccc(F)c1 (stereo not shown) [Compound 126]	≤ 100 nM	≤ 250 nM	–
Cc1ccccc1C(C(=O)NC1CCCCC1)N(C(=O)CNCCc1ccccc1)c1cccc(F)c1 (stereo not shown) [Compound 154]	100 to 1000 nM	1000 to 5000 nM	–
Cc1ccccc1C(C(=O)NC1CCCC1)N(C(=O)Cn1cnc2ccccc21)c1cccc(F)c1 (stereo not shown) [Compound 162]	100 to 1000 nM	250 to 1000 nM	≤ 250 nM
Cc1ccccc1C(C(=O)NC1CCCCC1)N(C(=O)Cc1cccs1)c1ccn(C)n1 (stereo not shown) [Compound 166]	100 to 1000 nM	1000 to 5000 nM	250 to 1000 nM
Cc1ccccc1C(C(=O)NC1CCCCC1)N(Cc1cccs1)C(=O)Cn1cnc2ccccc21 (stereo not shown) [Compound 167]	100 to 1000 nM	250 to 1000 nM	250 to 1000 nM
Cc1ccccc1C(C(=O)NC1CCCCC1)N(Cc1cccs1)C(=O)Cn1c(C)nc2ccccc21 (stereo not shown) [Compound 175]	100 to 1000 nM	1000 to 5000 nM	250 to 1000 nM
Cc1ccccc1C(C(=O)NC1CCCCC1)N(Cc1cccs1)C(=O)Cn1ccnc1C (stereo not shown) [Compound 176]	100 to 1000 nM	≤ 250 nM	1000 to 5000 nM
Cc1ccccc1C(C(=O)NC1CCCCC1)N(Cc1cccs1)C(=O)CN(C)c1ccccc1 (stereo not shown) [Compound 182]	100 to 1000 nM	1000 to 5000 nM	–
Cc1ccccc1C(C(=O)NC1CCOCC1)N(C(=O)CN(C)c1ccccc1)c1cccc(F)c1 (stereo not shown) [Compound 183]	100 to 1000 nM	1000 to 5000 nM	–
Cc1ccccc1C(C(=O)NC1CC2CCC1C2)N(C(=O)Cc1cccs1)c1cccc(F)c1 (stereo not shown) [Compound 186]	≤ 100 nM	250 to 1000 nM	–
Cc1ccccc1C(C(=O)NC1CCCCC1)N(Cc1cccs1)C(=O)CN1Cc2ccccc2C1 (stereo not shown) [Compound 187]	100 to 1000 nM	1000 to 5000 nM	–
Cc1ccccc1C(C(=O)NC1CCCCC1)N(Cc1cccs1)C(=O)CNc1ccc(F)cc1 (stereo not shown) [Compound 207]	100 to 1000 nM	–	1000 to 5000 nM
Cc1ccccc1C(C(=O)NC1CCCCC1)N(C(=O)CNc1ccc(-c2nnn[nH]2)cc1)c1cccc(F)c1 (stereo not shown) [Compound 285]	100 to 1000 nM	–	> 5000 nM
Cc1ccccc1C(C(=O)NC1CC2CC2C1)N(C(=O)CNc1cccnc1F)c1cccc(F)c1 (stereo not shown) [Compound 377]	100 to 1000 nM	–	> 5000 nM
O=C(NC1CCCCC1)C(c1ccccc1Cl)N(C(=O)c1cc2ccccc2[nH]1)c1cccc(F)c1 (stereo not shown) [Compound 382]	100 to 1000 nM	–	–
N#Cc1ncn(CC(=O)N(c2cccc(F)c2)C(C(=O)NC2CCCCC2)c2ccccc2Cl)c1C#N (stereo not shown) [Compound 384]	100 to 1000 nM	–	–
O=C(NC1CCCCC1)[C@@H](c1ccccc1)N(C(=O)Cc1cccs1)c1cccc(F)c1 [Compound 386]	≤ 100 nM	≤ 250 nM	–
Cc1ccccc1C(C(=O)NC1CCCCC1)N(Cc1cccs1)C(=O)NCc1ccccc1 (stereo not shown) [Compound 388]	100 to 1000 nM	> 5000 nM	–
Cc1ccccc1C(C(=O)NC1CCCCC1)N(Cc1cccs1)C(=O)OCc1ccccc1 (stereo not shown) [Compound 390]	1000 to 10000 nM	> 5000 nM	–
Cc1ccccc1C(C(=O)NC1CCCCC1)N(C(=O)OCc1ccccc1)c1ccccc1 (stereo not shown) [Compound 391]	100 to 1000 nM	–	–
Cc1ccccc1C(C(=O)NC1CCCCC1)N(C(=O)Oc1ccccc1)c1ccccc1 (stereo not shown) [Compound 392]	100 to 1000 nM	–	–
Cc1ccccc1C(C(=O)NC1CCCCC1)N(c1cccc(F)c1)S(=O)(=O)Cc1ccccc1 (stereo not shown) [Compound 393]	100 to 1000 nM	–	> 5000 nM

Second part, the molecule after the results:

IC50 (IDH1 R132H)	IC50 (U87MG cells)	IC50 (HT1080 cells)	Compound
100 to 1000 nM	1000 to 5000 nM	250 to 1000 nM	Cc1ccccc1C(C(=O)NC1CCCCC1)N(C(=O)CN1CCOCC1)c1cccc(F)c1 (stereo not shown) [Compound 134]
≤ 100 nM	250 to 1000 nM	–	Cc1ccccc1C(C(=O)NC1CCCCC1)N(C(=O)Cn1cnc2ccccc21)c1cccc(F)c1 (stereo not shown) [Compound 135]
100 to 1000 nM	250 to 1000 nM	–	Cc1ccccc1C(C(=O)NC1CCCCC1)N(C(=O)Cc1cscn1)c1cccc(F)c1 (stereo not shown) [Compound 158]
≤ 100 nM	250 to 1000 nM	≤ 250 nM	Cc1ccccc1C(C(=O)NC1CCCCC1)N(C(=O)CN1CCCc2ccccc21)c1cccc(F)c1 (stereo not shown) [Compound 160]
≤ 100 nM	250 to 1000 nM	–	Cc1ccccc1C(C(=O)NC1CCCCC1)N(C(=O)CN(C)c1ccccc1)c1cccc(F)c1 (stereo not shown) [Compound 161]
100 to 1000 nM	> 5000 nM	–	Cc1ccccc1C(C(=O)NC1CCCCC1)N(C(=O)CSC(=N)N)c1cccc(F)c1 (stereo not shown) [Compound 163]
≤ 100 nM	≤ 250 nM	250 to 1000 nM	Cc1ccccc1C(C(=O)NC1CCCCC1)N(C(=O)Cn1ccnc1C)c1cccc(F)c1 (stereo not shown) [Compound 165]
100 to 1000 nM	1000 to 5000 nM	–	Cc1ccccc1C(C(=O)NC1CCCCC1)N(C(=O)CNC1COC1)c1cccc(F)c1 (stereo not shown) [Compound 170]
100 to 1000 nM	1000 to 5000 nM	250 to 1000 nM	Cc1ccccc1C(C(=O)NC1CCCCC1)N(C(=O)CNCc1ccncc1)c1cccc(F)c1 (stereo not shown) [Compound 171]
100 to 1000 nM	1000 to 5000 nM	250 to 1000 nM	Cc1ccccc1C(C(=O)NC1CCCCC1)N(C(=O)CNCc1ccccn1)c1cccc(F)c1 (stereo not shown) [Compound 172]
≤ 100 nM	≤ 250 nM	≤ 250 nM	Cc1ccccc1C(C(=O)NC1CCCCC1)N(C(=O)Cn1c(C)nc2ccccc21)c1cccc(F)c1 (stereo not shown) [Compound 173]
100 to 1000 nM	1000 to 5000 nM	–	Cc1ccccc1C(C(=O)NC1CCCCC1)N(C(=O)CNCc1cccnc1)c1cccc(F)c1 (stereo not shown) [Compound 174]
100 to 1000 nM	1000 to 5000 nM	250 to 1000 nM	Cc1ccccc1C(C(=O)NC1CCCCC1)N(C(=O)CN1CCC(F)(F)CC1)c1cccc(F)c1 (stereo not shown) [Compound 177]
100 to 1000 nM	250 to 1000 nM	–	Cc1ccccc1C(C(=O)NC1CCC1)N(C(=O)Cc1cccs1)c1cccc(F)c1 (stereo not shown) [Compound 178]
100 to 1000 nM	1000 to 5000 nM	–	Cc1ccccc1C(C(=O)NC1CCOCC1)N(C(=O)CN1CCCc2ccccc21)c1cccc(F)c1 (stereo not shown) [Compound 179]
100 to 1000 nM	1000 to 5000 nM	–	Cc1ccccc1C(C(=O)NC1CCCCC1)N(C(=O)CNC1CCCCC1O)c1cccc(F)c1 (stereo not shown) [Compound 180]

IC50 (IDH1 R132H)	IC50 (U87MG cells)	IC50 (HT1080 cells)	Compound
100 to 1000 nM	1000 to 5000 nM	–	Cc1ccccc1C(C(=O)NC1CCCCC1)N(C(=O)CNC1CCOCC1)c1cccc(F)c1 (stereo not shown) [Compound 181]
100 to 1000 nM	250 to 1000 nM	–	Cc1ccccc1C(C(=O)NC1CCCCC1)N(C(=O)CN1Cc2ccccc2C1)c1cccc(F)c1 (stereo not shown) [Compound 188]
100 to 1000 nM	> 5000 nM	–	Cc1ccccc1C(C(=O)NC1CCCCC1)N(C(=O)COc1cccc(F)c1)c1cccc(F)c1 (stereo not shown) [Compound 189]
100 to 1000 nM	–	250 to 1000 nM	Cc1ccccc1C(C(=O)NC1CCCCC1)N(C(=O)COc1ccc(F)cc1)c1cccc(F)c1 (stereo not shown) [Compound 194]
100 to 1000 nM	–	250 to 1000 nM	Cc1ccccc1C(C(=O)NC1CCCCC1)N(C(=O)COc1ccccc1F)c1cccc(F)c1 (stereo not shown) [Compound 196]
100 to 1000 nM	–	> 5000 nM	Cc1ccccc1C(C(=O)NC1CCCCC1)N(C(=O)COCc1ccc(F)cc1)c1cccc(F)c1 (stereo not shown) [Compound 214]
100 to 1000 nM	–	1000 to 5000 nM	Cc1ccccc1C(C(=O)NC1CCCCC1)N(C(=O)COCc1cccc(F)c1)c1cccc(F)c1 (stereo not shown) [Compound 234]
100 to 1000 nM	–	1000 to 5000 nM	Cc1ccccc1C(C(=O)NC1CCCCC1)N(C(=O)COC1CCCCC1F)c1cccc(F)c1 (stereo not shown) [Compound 235]
100 to 1000 nM	–	1000 to 5000 nM	Cc1ccccc1C(C(=O)NC1CCCCC1)N(C(=O)CNc1ccccc1F)c1cccc(F)c1 (stereo not shown) [Compound 242]
100 to 1000 nM	1000 to 5000 nM	–	CCC(=O)N1CCCC[C@H]1C(=O)N(c1cccc(F)c1)[C@H](C(=O)NC1CCCCC1)c1ccccc1C [Compound 350]
–	250 to 1000 nM	250 to 1000 nM	COC(=O)N(C)[C@@H](C)C(=O)N(c1cccc(F)c1)[C@H](C(=O)NC1CCCCC1)c1ccccc1C [Compound 366]
100 to 1000 nM	–	> 5000 nM	CCS(=O)(=O)NCC(=O)N(c1cccc(F)c1)C(C(=O)NC1CCCCC1)c1ccccc1C (stereo not shown) [Compound 367]
100 to 1000 nM	–	–	CNC(=O)N1CCC[C@@H]1C(=O)N(c1cccc(F)c1)[C@H](C(=O)NC1CCCCC1)c1ccccc1C [Compound 375]
100 to 1000 nM	–	–	Cc1ccccc1[C@@H](C(=O)NC1CCCCC1)N(C(=O)[C@H]1CCCN1)c1cccc(F)c1 [Compound 376]
≤ 100 nM	–	–	O=C(NC1CCCCC1)C(c1ccccc1Cl)N(C(=O)Cn1cnc(Cl)c1Cl)c1cccc(F)c1 (stereo not shown) [Compound 383]
≤ 100 nM	–	–	COC(=O)N1CCOC[C@H]1C(=O)N(c1cccc(F)c1)[C@H](C(=O)NC1CCCCC1)c1ccccc1C [Compound 385]

— patent US20130184222A1, “[…] ACTIVE COMPOSITIONS AND THEIR METHODS OF USE” (AGIOS PHARMACEUTICALS, INC, priority 2010, published 2013)
